{"source": "ChEMBL document CHEMBL1151294", "about": "“Evaluation of limonoids against the murine P388 lymphocytic leukemia cell line” (J Nat Prod, 1983)", "format_in_all_cases": "functional, organism-based", "key": {"[1]": {"tested_on": "P388", "test": "In vivo antitumor activity against mouse P388 cells at 0.5 to 4 mg"}, "[2]": {"tested_on": "P388", "test": "In vivo antitumor activity against mouse P388 cells at 0.37 to 6 mg"}, "[3]": {"tested_on": "P388", "test": "In vivo antitumor activity against mouse P388 cells at 0.5 to 8 mg"}, "[4]": {"tested_on": "P388", "test": "In vivo antitumor activity against mouse P388 cells at 0.75 to 12 mg"}, "[5]": {"tested_on": "P388", "test": "In vivo antitumor activity against mouse P388 cells at 2.5 to 40 mg"}, "[6]": {"tested_on": "P388", "test": "In vivo antitumor activity against mouse P388 cells at 1.25 to 10 mg"}, "[7]": {"tested_on": "P388", "test": "In vivo antitumor activity against mouse P388 cells at 0.01 to 2.4 mg"}, "[8]": {"tested_on": "P388", "test": "In vivo antitumor activity against mouse P388 cells at 0.75 to 6 mg"}, "[9]": {"tested_on": "P388", "test": "In vivo antitumor activity against mouse P388 cells at 5 to 20 mg"}, "[10]": {"tested_on": "P388", "test": "In vivo antitumor activity against mouse P388 cells at 1.25 to 2.5 mg"}, "[11]": {"tested_on": "P388", "test": "In vivo antitumor activity against mouse P388 cells at 0.03 to 2 mg"}, "[12]": {"tested_on": "P388", "test": "In vivo antitumor activity against mouse P388 cells at 2 to 200 mg"}, "[13]": {"tested_on": "P388", "test": "In vivo antitumor activity against mouse P388 cells at 1.5 to 12 mg"}, "[14]": {"tested_on": "P388", "test": "In vivo antitumor activity against mouse P388 cells at 0.25 to 2 mg"}, "[15]": {"tested_on": "P388", "test": "In vivo antitumor activity against mouse P388 cells at 1.5 to 24 mg"}, "[16]": {"tested_on": "P388", "test": "In vivo antitumor activity against mouse P388 cells at 3.7 to 7.5 mg"}, "[17]": {"tested_on": "P388", "test": "In vivo antitumor activity against mouse P388 cells at 3 to 24 mg"}}, "note": "Calls of active or inactive are those of the source. The rule behind the calls is not given here."}
{"smiles": "CC1(C)O[C@H]2CC(=O)OC[C@@]23C1=C(O)C(=O)[C@]1(C)[C@@H]3CC[C@@]2(C)[C@@H](c3ccoc3)OC(=O)[C@H]3O[C@]321", "values": [{"measurement": "Activity", "setting": "[1]", "value": "inactive"}]}
{"smiles": "COC(=O)[C@@]1(C)CCC[C@]2(C)C3=C(CC[C@@H]12)C(=O)c1occc1CC3", "values": [{"measurement": "Activity", "setting": "[2]", "value": "inactive"}]}
{"smiles": "CC1(C)O[C@H]2CC(=O)OC[C@]23[C@H]2CC[C@@]4(C)[C@@H](c5ccoc5)OC(=O)[C@H]5O[C@]54[C@]2(C)[C@@H](OC(=O)CCl)C[C@@H]13", "values": [{"measurement": "Activity", "setting": "[3]", "value": "inactive"}]}
{"smiles": "CC(=O)OC1[C@@H]2[C@@]3(C)C=C[C@@H](O)[C@](C)(OC(C)=O)[C@@H]3C[C@@H](OC(C)=O)[C@@]2(C)[C@]23O[C@@H]2CC(c2ccoc2)[C@]3(C)[C@H]1OC(=O)C(C)C", "note": "(single isomer, unassigned)", "values": [{"measurement": "Activity", "setting": "[4]", "value": "inactive"}]}
{"smiles": "CC(=O)O[C@@H]1C[C@H]2C(C)(C)C(=O)C=C[C@]2(C)[C@H]2CC[C@]3(C)C(=CC(=O)O[C@H]3c3ccoc3)[C@@]21C", "values": [{"measurement": "Activity", "setting": "[5]", "value": "inactive"}]}
{"smiles": "CC1(C)OC(=O)C=C[C@]2(C)[C@H]3CC[C@]4(C)[C@H](c5ccoc5)C[C@@H]5O[C@@]54[C@]3(C)C(=O)[C@H](O)[C@@H]12", "values": [{"measurement": "Activity", "setting": "[6]", "value": "inactive"}]}
{"smiles": "CC1=C2CC(=O)O[C@H](c3ccoc3)[C@]2(C)CC[C@@H]1[C@@]12COC(=O)C[C@@H]1OC(C)(C)C2CC(=O)O", "note": "(stereo partly drawn)", "values": [{"measurement": "Activity", "setting": "[1]", "value": "inactive"}]}
{"smiles": "CC(=O)O[C@@H]1C[C@H](O)[C@@]23CO[C@H](O)[C@]1(C)[C@@H]2C[C@@H](O)[C@@]1(C)[C@@H]2C(=O)C[C@@H](c4ccoc4)[C@]2(C)CC(=O)[C@@H]13", "values": [{"measurement": "Activity", "setting": "[7]", "value": "inactive"}]}
{"smiles": "CC1(C)O[C@@H](CC(=O)O)[C@]23CO[C@H](C(=O)[C@]4(C)[C@@H]2CC[C@@]2(C)[C@@H](c5ccoc5)OC(=O)[C@H]5O[C@]524)[C@H]13", "values": [{"measurement": "Activity", "setting": "[8]", "value": "inactive"}]}
{"smiles": "CC(=O)O[C@@H]1C[C@@H]2[C@](C)(C=C[C@@H](O)[C@]2(C)OC(C)=O)[C@H]2C(=O)[C@H](OC(C)=O)[C@@]3(C)C(c4ccoc4)C[C@H]4O[C@@]43[C@@]21C", "note": "(single isomer, unassigned)", "values": [{"measurement": "Activity", "setting": "[4]", "value": "inactive"}]}
{"smiles": "CC(=O)O[C@@H]1C[C@H](O)[C@@]23CO[C@H](O)[C@]1(C)[C@@H]2C[C@@H](O)[C@]1(C)[C@@H]3C(=O)[C@H](O)[C@@]2(C)[C@H](c3ccoc3)C[C@H]3O[C@@]321", "values": [{"measurement": "Activity", "setting": "[9]", "value": "Toxic"}, {"measurement": "Activity", "setting": "[10]", "value": "inactive"}]}
{"smiles": "C[C@H]1CC[C@@]23COC(=O)C2=CCC[C@@H]3[C@@]12C[C@H](c1ccoc1)OC2=O", "values": [{"measurement": "Activity", "setting": "[11]", "value": "inactive"}]}
{"smiles": "CC(C)(O)[C@@H]1CC(=O)[C@]2(C)[C@H](CC[C@@]3(C)[C@@H](c4ccoc4)OC(=O)[C@H]4O[C@]432)[C@@]1(C)/C=C\\C(=O)O", "values": [{"measurement": "Activity", "setting": "[8]", "value": "inactive"}]}
{"smiles": "CC1(C)O[C@@H](CC(=O)O)[C@]23CO[C@H](C(=O)[C@]4(C)[C@@H]2CC[C@@]2(C)[C@H]([C@H]5CCOC5)OC(=O)[C@H]5O[C@]524)[C@H]13", "values": [{"measurement": "Activity", "setting": "[1]", "value": "inactive"}]}
{"smiles": "CC1(C)O[C@H]2CC(=O)OC[C@@]23[C@H]1CC(=O)[C@@]1(C)C2=CC(=O)O[C@H](c4ccoc4)[C@]2(C)CC[C@@H]13", "values": [{"measurement": "Activity", "setting": "[1]", "value": "inactive"}]}
{"smiles": "C=C1[C@@H]2CC[C@@]3(C)[C@H](c4ccoc4)OC(=O)C[C@]13O[C@H]1CC(=O)C(C)(C)[C@H](CC(=O)OC)[C@]12C", "values": [{"measurement": "Activity", "setting": "[12]", "value": "inactive"}]}
{"smiles": "CC1(C)O[C@H]1[C@H]1C[C@@H]([C@@H]2CC[C@]3(C)C4=CC[C@H]5C(C)(C)C(=O)CC[C@]5(C)[C@H]4CC[C@@]23C)[C@H](O)O1", "values": [{"measurement": "Activity", "setting": "[13]", "value": "inactive"}]}
{"smiles": "CC(=O)O[C@@H]1C[C@H](O)[C@@]23CO[C@H](O)[C@]1(C)[C@@H]2C[C@@H](O)[C@]1(C)[C@@H]3C(=O)C[C@@]2(C)[C@H](c3ccoc3)C[C@H]3O[C@]312", "values": [{"measurement": "Activity", "setting": "[14]", "value": "inactive"}]}
{"smiles": "CC1(C)C(=O)C=C[C@]2(C)[C@H]3CC[C@@]4(C)[C@H](c5ccoc5)OC(=O)[C@H]5O[C@]54[C@]3(C)C(=O)C[C@@H]12", "values": [{"measurement": "Activity", "setting": "[15]", "value": "inactive"}]}
{"smiles": "C=C1[C@@H]([C@@]2(C)[C@@H](OC(C)=O)CC(=O)O[C@](C)(COC(C)=O)[C@@H]2C(=O)OC)[C@@H](OC=O)[C@H](OC(=O)[C@H](O)[C@H](C)CC)[C@@]2(C)[C@H](c3ccoc3)CC(=O)[C@]12O", "values": [{"measurement": "Activity", "setting": "[16]", "value": "inactive"}]}
{"smiles": "C[C@]12C[C@H](c3ccoc3)OC(=O)[C@@H]1CC[C@@]13COC(=O)C1=CCC[C@@H]32", "values": [{"measurement": "Activity", "setting": "[14]", "value": "inactive"}]}
{"smiles": "CC(=O)OC1=C2C(C)(C)O[C@H]3CC(=O)OC[C@@]23[C@H]2CC[C@@]3(C)[C@@H](c4ccoc4)OC(=O)[C@H]4O[C@]43[C@]2(C)C1=O", "values": [{"measurement": "Activity", "setting": "[1]", "value": "inactive"}]}
{"smiles": "CC1(C)C(=O)CC[C@]2(C)[C@H]3CC[C@@]4(C)[C@H](c5ccoc5)OC(=O)[C@H]5O[C@]54[C@]3(C)C(=O)C[C@@H]12", "values": [{"measurement": "Activity", "setting": "[3]", "value": "inactive"}]}
{"smiles": "CC1(C)C(=O)C=C[C@]2(C)[C@H]3CC[C@@]4(C)[C@H](c5ccoc5)OC(=O)[C@H]5O[C@]54[C@]3(C)[C@H](O)C[C@@H]12", "values": [{"measurement": "Activity", "setting": "[15]", "value": "inactive"}]}
{"smiles": "CC1(C)O[C@H]2CC(=O)OC[C@]23[C@H]2CC[C@@]4(C)[C@@H](c5ccoc5)OC(=O)[C@H]5O[C@]54[C@]2(C)[C@@H](O)C[C@@H]13", "values": [{"measurement": "Activity", "setting": "[8]", "value": "inactive"}]}
{"smiles": "CC(=O)O[C@@H]1C[C@@]2(C)[C@H](c3ccoc3)C[C@H]3O[C@]32[C@]2(C)C(=O)C(O)=C3C(C)(C)C(=O)C=C[C@]3(C)C12", "note": "(stereo partly drawn)", "values": [{"measurement": "Activity", "setting": "[17]", "value": "inactive"}]}
{"smiles": "CC(=O)O[C@H]1[C@@H](OC(C)=O)[C@]2(C)[C@H](CC[C@]3(C)[C@H](c4ccoc4)C[C@@H]4O[C@]423)[C@@]2(C)C=CC(=O)OC(C)(C)[C@H]12", "values": [{"measurement": "Activity", "setting": "[6]", "value": "inactive"}]}
